Key:
rat [1] = settings: Subchronic oral toxicity in rodents, sprague dawley, Feed, dose end: 90 day, group: systemic, systemic / in life observation / body weight / body weight gain + systemic / pathology gross / eye / opacity + systemic / pathology …
rat [2] = settings: Combined chronic toxicity/carcinogenicity, sprague dawley, Oral, Feed, dose end: 2 year, group: systemic
mouse [3] = settings: Chronic toxicity; cd1; Oral; Feed; dose end: 1 year; group: systemic; systemic / in life observation / body weight / body weight gain + systemic / in life observation / food consumption / food efficiency
dog [4] = settings: Subchronic oral toxicity in nonrodent, beagle, Capsule, dose end: 90 day, group: systemic, systemic / in life observation / clinical signs / [other] + systemic / in life observation / clinical signs / feces, discoloration + …
rat [5] = settings: Subchronic oral toxicity in rodents, sprague dawley, Feed, dose end: 90 day, group: systemic
rat [6] = settings: Multigenerational reproductive toxicity study, sprague dawley, Oral, Feed, dose end: 3 generation
dog [7] = settings: Chronic toxicity, beagle, Oral, Capsule, dose end: 53 week, group: systemic
rat [8] = settings: Prenatal developmental toxicity study, wistar, Oral, Gavage/Intubation, dose end: 16 GD
mouse [9] = settings: Carcinogenicity; cd1; Oral; Feed; dose end: 18 month; group: systemic; systemic / in life observation / body weight / body weight + systemic / in life observation / body weight / body weight gain + systemic / in…
rat [10] = settings: Subchronic oral toxicity in rodents, fischer, Feed, dose end: 90 day
mouse [11] = settings: Subchronic oral toxicity in rodents, b6c3f1, Feed, dose end: 90 day
mouse [12] = settings: Multigenerational reproductive toxicity study; cd1; Oral; Feed; dose end: 2 generation; group: offspring; systemic / in life observation / body weight / offspring (pup) weight
[13] = systemic / in life observation / body weight / body weight + systemic / in life observation / body weight / body weight gain
[14] = systemic / organ weight / liver / absolute + systemic / organ weight / liver / relative to body weight
[15] = group: offspring, systemic / clinical chemistry / tyrosine / tyrosine
[16] = group: parental, systemic / clinical chemistry / tyrosine / tyrosine
[17] = group: parental, systemic / clinical chemistry / tyrosine / tyrosine + systemic / organ weight / liver / relative to body weight
[18] = group: reproductive, reproductive / offspring survival early / litter size / litter size
[19] = group: reproductive, reproductive / offspring survival early / litter size / litter size + reproductive / offspring survival early / birth index / live birth …
[20] = systemic / clinical chemistry / tyrosine / tyrosine + systemic / pathology microscopic / lymph node / erythrophagocytosis
[21] = systemic / clinical chemistry / tyrosine / tyrosine + systemic / pathology microscopic / lymph node / erythrophagocytosis + systemic / in …
[22] = group: developmental, developmental / developmental malformation / bone / unossified + developmental / developmental malformation / bone / bipartite ossification…
[23] = group: maternal, systemic / in life observation / body weight / body weight gain + systemic / in life observation / food consumption / food consumption + …
[24] = group: maternal, reproductive / reproductive performance / estrous cycle / length
[25] = group: systemic, systemic / organ weight / liver / relative to body weight
[26] = group: systemic, systemic / organ weight / liver / relative to body weight + systemic / clinical chemistry / bile acids / bile acids + systemic / in life …
[27] = group: systemic, systemic / clinical chemistry / 5' nucleotidase / 5' nucleotidase + systemic / clinical chemistry / alanine aminotransferase (alt/sgpt) / …
[28] = group: systemic, systemic / in life observation / body weight / body weight gain + systemic / organ weight / liver / relative to body weight

With `CS(=O)(=O)c1ccc(C(=O)C2C(=O)CCCC2=O)c([N+](=O)[O-])c1` [Mesotrione] the LEL (rat [1]) was 11 mg/kg/day, the LOAEL (rat [1]) was 11 mg/kg/day and the NEL (rat [1]) was 0.09 mg/kg/day. For the same compound, the NOAEL (rat [1]) was 0.09 mg/kg/day, the LEL (rat [2]; [13]) was 0.06 mg/kg/day and the NEL (rat [2]; [13]) was under 0.06 mg/kg/day. For the same compound, the LOAEL (rat [2]; systemic / organ weight / kidney / absolute + systemic / organ weight / kidney / nos + systemic / organ weight / liver / absolute + systemic…) was 0.48 mg/kg/day, the LEL (mouse [3]) was 1110 mg/kg/day and the LOAEL (mouse [3]) was 1110 mg/kg/day. It also gave an NEL (mouse [3]) of 56.2 mg/kg/day, an NOAEL (mouse [3]) of 56.2 mg/kg/day and an LEL (dog [4]) of 600 mg/kg/day. For the same compound, the LOAEL (dog [4]) was over 1000 mg/kg/day, the NEL (dog [4]) was 100 mg/kg/day and the NOAEL (dog [4]) was at least 1000 mg/kg/day. The LEL (rat [5]; [14]) was 0.21 mg/kg/day, the NEL (rat [5]; [14]) was under 0.21 mg/kg/day and the LOAEL (rat [5]; systemic / pathology microscopic / eye / neovascularization + systemic / pathology microscopic / eye / opacity) was 0.63 mg/kg/day. For the same compound, the NOAEL (rat [5]; systemic / pathology microscopic / eye / neovascularization + systemic / pathology microscopic / eye / opacity + systemic / clinical …) was 0.41 mg/kg/day, the LEL (rat [6]; [15]) was 0.3 mg/kg/day and the LOAEL (rat [6]; [15]) was 0.3 mg/kg/day. For the same compound, the NEL (rat [6]; [15]) was under 0.3 mg/kg/day, the NOAEL (rat [6]; [15]) was under 0.3 mg/kg/day and the LOAEL (rat [6]; [16]) was 0.3 mg/kg/day. It also gave an NOAEL (rat [6]; [16]) of under 0.3 mg/kg/day, an LEL (rat [6]; [17]) of 0.3 mg/kg/day and an NEL (rat [6]; [17]) of under 0.3 mg/kg/day. The LEL (rat [6]; [18]) was 1.1 mg/kg/day, the LOAEL (rat [6]; [18]) was 1.1 mg/kg/day and the NEL (rat [6]; [19]) was 0.3 mg/kg/day. For the same compound, the NOAEL (rat [6]; [19]) was 0.3 mg/kg/day, the LOAEL (dog [7]; [20]) was 10 mg/kg/day and the NOAEL (dog [7]; [20]) was under 10 mg/kg/day. The LEL (dog [7]; [21]) was 10 mg/kg/day, the NEL (dog [7]; [21]) was under 10 mg/kg/day and the LEL (rat [8]; [22]) was 100 mg/kg/day. For the same compound, the LOAEL (rat [8]; [22]) was 100 mg/kg/day, the NEL (rat [8]; [22]) was under 100 mg/kg/day and the NOAEL (rat [8]; [22]) was under 100 mg/kg/day. It also gave an LOAEL (rat [8]; group: maternal, systemic / in life observation / body weight / body weight gain + systemic / in life observation / food consumption / food consumption) of 300 mg/kg/day, an LEL (rat [8]; [23]) of 300 mg/kg/day and an NEL (rat [8]; [23]) of 100 mg/kg/day. The NOAEL (rat [8]; [23]) was 100 mg/kg/day, the LEL (mouse [9]) was 898 mg/kg/day and the LOAEL (mouse [9]) was 898 mg/kg/day. The NEL (mouse [9]) was 49.7 mg/kg/day and the NOAEL (mouse [9]) was 49.7 mg/kg/day.
With `Cc1ccccc1O` [o-Cresol] the LEL (rat [10]; [24]) was 129 mg/kg/day, the LOAEL (rat [10]; [24]) was over 2020 mg/kg/day and the NEL (rat [10]; [24]) was under 129 mg/kg/day. It also gave an NOAEL (rat [10]; [24]) of at least 2020 mg/kg/day, an LEL (rat [10]; [25]) of 510 mg/kg/day and an LOAEL (rat [10]; [25]) of 1020 mg/kg/day. For the same compound, the NEL (rat [10]; [26]) was 247 mg/kg/day, the NOAEL (rat [10]; [26]) was 510 mg/kg/day and the LEL (mouse [11]; [24]) was 237 mg/kg/day. It also gave an LOAEL (mouse [11]; [24]) of over 3200 mg/kg/day, an NOAEL (mouse [11]; [24]) of at least 3200 mg/kg/day and an LOAEL (mouse [11]; [27]) of over 3200 mg/kg/day. For the same compound, the NOAEL (mouse [11]; [27]) was at least 3200 mg/kg/day, the LEL (mouse [11]; [28]) was 199 mg/kg/day and the NEL (mouse [11]; [28]) was under 199 mg/kg/day. For the same compound, the LEL (mouse [12]) was 624 mg/kg/day, the LOAEL (mouse [12]) was over 624 mg/kg/day and the NOAEL (mouse [12]) was at least 624 mg/kg/day.

— EPA's ToxRefDB 2
